{"source": "patent US20150044702A1", "about": "“MEANS AND METHODS FOR ASSESSING DISORDERS RELATED TO IMPAIRED IRON […] ENERGY METABOLISM” (BASF SE, priority 2012, published 2015)", "assay": "28-day rat study, plasma metabolite profiling: markers for Duodenum iron deficiency;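 further: rats given the compounds once a day across 28 days, plasma from fasted animals profiled by GC-MS and LC-MS, separate control groups of five rats per sex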", "conditions": "for Cholic acid, treatment ratio versus control / Choline plasmalogen (C18,C20:4), treatment ratio versus control / Citrate, treatment ratio versus control / Creatinine, treatment ratio versus control / DAG (C18:1,C18:2), treatment ratio versus control / Hippuric acid, treatment ratio versus control / Indole-3-propionic acid, treatment ratio versus control / Methionine, treatment ratio versus control / Proline, treatment ratio versus control / Serine, treatment ratio versus control / TAG (C16:0,C18:1,C18:3), treatment ratio versus control / TAG (C18:1,C18:2), treatment ratio versus control / TAG (C18:2,C18:2), treatment ratio versus control / TAG (C18:2,C18:3), treatment ratio versus control / TAG (DAG-Fragment), treatment ratio versus control / TAG No 02, treatment ratio versus control / TAG No 07, treatment ratio versus control / Threonine, treatment ratio versus control / alpha-Tocopherol, treatment ratio versus control / Alanine, treatment ratio versus control / Campesterol, treatment ratio versus control / Glutamate, treatment ratio versus control / Glutamine, treatment ratio versus control / Lysophosphatidylcholine (C20:4), treatment ratio versus control / Malate, treatment ratio versus control / Ornithine, treatment ratio versus control / Phosphatidylcholine (C18:0, C22:6), treatment ratio versus control / Threonic acid, treatment ratio versus control: plasma", "note": "Marks after values point to notes of the source that are not given here.", "procedure": "A group of each 5 male and female rats was dosed once daily with the indicated compounds (see Table 4, below for compounds, applied doses and administration details) over 28 days.\nEach dose group in the studies consisted of five rats per sex. Additional groups of each 5 male and female animals served as controls. Before starting the treatment period, animals, which were 62-64 days old when supplied, were acclimatized to the housing and environmental conditions for 7 days. All animals of the animal population were kept under the same constant temperature (20-24±3° C.) and the same constant humidity (30-70%). The animals of the animal population were fed ad libitum. The food to be used was essentially free of chemical or microbial contaminants. Drinking water was also offered ad libitum. Accordingly, the water was free of chemical and microbial contaminants as laid down in the European Drinking Water Directive 98/83/EG. The illumination period was 12 hours light followed by 12 hours darkness (12 hours light, from 6:00 to 18:00, and 12 hours darkness, from 18:00 to 6:00). The studies were performed in an AAALAC-approved laboratory in accordance with the German Animal Welfare Act and the European Council Directive 86/609/EE. The test system was arranged according to the OECD 407 guideline for the testing of chemicals for repeated dose 28-day oral toxicity study in rodents.\nIn the morning of day 7, 14, and 28, blood was taken from the retroorbital venous plexus from fasted anaesthetized animals. From each animal, 1 ml of blood was collected with EDTA as anticoagulant. The samples were centrifuged for generation of plasma. All plasma samples were covered with a N2 atmosphere and then stored at −80° C. until analysis.\nFor mass spectrometry-based metabolite profiling analyses plasma samples were extracted and a polar and a non-polar (lipid) fraction was obtained. For GC-MS analysis, the non-polar fraction was treated with methanol under acidic conditions to yield the fatty acid methyl esters. Both fractions were further derivatised with O-methyl-hydroxyamine hydrochloride and pyridine to convert Oxo-groups to O-methyloximes and subsequently with a silylating agent before analysis. In LC-MS analysis, both fractions were reconstituted in appropriate solvent mixtures. HPLC was performed by gradient elution on reversed phase separation columns.\nSteroids and their metabolites were measured by online SPE-LC-MS (Solid phase extraction-LC-MS).\nFollowing comprehensive analytical validation steps, the data for each analyte were normalized against data from pool samples. These samples were run in parallel through the whole process to account for process variability. The significance of treatment group values specific for sex, treatment duration and metabolite was determined by comparing means of the treated groups to the means of the respective untreated control groups using WELCH-test and quantified with treatment ratios versus control and p-values.", "data": [{"smiles": "CNC(=O)/C(=N/OC)c1ccccc1COc1cc(C)ccc1C", "note": "[Dimoxystrobin, (E)-2-(methoxyimino)-N-methyl-2-[alpha-(2,5-xylyloxy)-o-tolyl]acetamide]", "values": [{"measurement": "Cholic acid, treatment ratio versus control", "setting": "female rats, day 7", "value": "70.58*"}, {"measurement": "Choline plasmalogen (C18,C20:4), treatment ratio versus control", "setting": "female rats, day 7", "value": 1.11}, {"measurement": "Citrate, treatment ratio versus control", "setting": "female rats, day 7", "value": "1.22*"}, {"measurement": "Creatinine, treatment ratio versus control", "setting": "female rats, day 7", "value": 0.71}, {"measurement": "DAG (C18:1,C18:2), treatment ratio versus control", "setting": "female rats, day 7", "value": "1.9*"}, {"measurement": "Hippuric acid, treatment ratio versus control", "setting": "female rats, day 7", "value": 0.85}, {"measurement": "Indole-3-propionic acid, treatment ratio versus control", "setting": "female rats, day 7", "value": 1.53}, {"measurement": "Methionine, treatment ratio versus control", "setting": "female rats, day 7", "value": 1.05}, {"measurement": "Proline, treatment ratio versus control", "setting": "female rats, day 7", "value": "1.28*"}, {"measurement": "Serine, treatment ratio versus control", "setting": "female rats, day 7", "value": "1.5*"}, {"measurement": "TAG (C16:0,C18:1,C18:3), treatment ratio versus control", "setting": "female rats, day 7", "value": "4.14*"}, {"measurement": "TAG (C18:1,C18:2), treatment ratio versus control", "setting": "female rats, day 7", "value": "4.42*"}, {"measurement": "TAG (C18:2,C18:2), treatment ratio versus control", "setting": "female rats, day 7", "value": "5.1*"}, {"measurement": "TAG (C18:2,C18:3), treatment ratio versus control", "setting": "female rats, day 7", "value": "4.2*"}, {"measurement": "TAG (DAG-Fragment), treatment ratio versus control", "setting": "female rats, day 7", "value": "4.39*"}, {"measurement": "TAG No 02, treatment ratio versus control", "setting": "female rats, day 7", "value": "0.75*"}, {"measurement": "TAG No 07, treatment ratio versus control", "setting": "female rats, day 7", "value": "2.96*"}, {"measurement": "Threonine, treatment ratio versus control", "setting": "female rats, day 7", "value": "1.62*"}, {"measurement": "alpha-Tocopherol, treatment ratio versus control", "setting": "female rats, day 7", "value": "1.74*"}, {"measurement": "Cholic acid, treatment ratio versus control", "setting": "female rats, day 14", "value": "39.73*"}, {"measurement": "Choline plasmalogen (C18,C20:4), treatment ratio versus control", "setting": "female rats, day 14", "value": "1.13*"}, {"measurement": "Citrate, treatment ratio versus control", "setting": "female rats, day 14", "value": "1.17*"}, {"measurement": "Creatinine, treatment ratio versus control", "setting": "female rats, day 14", "value": 1.07}, {"measurement": "DAG (C18:1,C18:2), treatment ratio versus control", "setting": "female rats, day 14", "value": "1.96*"}, {"measurement": "Hippuric acid, treatment ratio versus control", "setting": "female rats, day 14", "value": "0.51*"}, {"measurement": "Indole-3-propionic acid, treatment ratio versus control", "setting": "female rats, day 14", "value": 0.87}, {"measurement": "Methionine, treatment ratio versus control", "setting": "female rats, day 14", "value": "1.18*"}, {"measurement": "Proline, treatment ratio versus control", "setting": "female rats, day 14", "value": "1.35*"}, {"measurement": "Serine, treatment ratio versus control", "setting": "female rats, day 14", "value": "1.66*"}, {"measurement": "TAG (C16:0,C18:1,C18:3), treatment ratio versus control", "setting": "female rats, day 14", "value": 3.15}, {"measurement": "TAG (C18:1,C18:2), treatment ratio versus control", "setting": "female rats, day 14", "value": "3.71*"}, {"measurement": "TAG (C18:2,C18:2), treatment ratio versus control", "setting": "female rats, day 14", "value": "3.83*"}, {"measurement": "TAG (C18:2,C18:3), treatment ratio versus control", "setting": "female rats, day 14", "value": "2.76*"}, {"measurement": "TAG (DAG-Fragment), treatment ratio versus control", "setting": "female rats, day 14", "value": "4.43*"}, {"measurement": "TAG No 02, treatment ratio versus control", "setting": "female rats, day 14", "value": "0.73*"}, {"measurement": "TAG No 07, treatment ratio versus control", "setting": "female rats, day 14", "value": 1.7}, {"measurement": "Threonine, treatment ratio versus control", "setting": "female rats, day 14", "value": "1.34*"}, {"measurement": "alpha-Tocopherol, treatment ratio versus control", "setting": "female rats, day 14", "value": "1.43*"}, {"measurement": "Cholic acid, treatment ratio versus control", "setting": "female rats, day 28", "value": "6.46*"}, {"measurement": "Choline plasmalogen (C18,C20:4), treatment ratio versus control", "setting": "female rats, day 28", "value": "1.11*"}, {"measurement": "Citrate, treatment ratio versus control", "setting": "female rats, day 28", "value": "1.21*"}, {"measurement": "Creatinine, treatment ratio versus control", "setting": "female rats, day 28", "value": 0.74}, {"measurement": "DAG (C18:1,C18:2), treatment ratio versus control", "setting": "female rats, day 28", "value": "1.58*"}, {"measurement": "Hippuric acid, treatment ratio versus control", "setting": "female rats, day 28", "value": "0.29*"}, {"measurement": "Indole-3-propionic acid, treatment ratio versus control", "setting": "female rats, day 28", "value": "0.58*"}, {"measurement": "Methionine, treatment ratio versus control", "setting": "female rats, day 28", "value": "1.15*"}, {"measurement": "Proline, treatment ratio versus control", "setting": "female rats, day 28", "value": "1.25*"}, {"measurement": "Serine, treatment ratio versus control", "setting": "female rats, day 28", "value": "1.41*"}, {"measurement": "TAG (C16:0,C18:1,C18:3), treatment ratio versus control", "setting": "female rats, day 28", "value": 2}, {"measurement": "TAG (C18:1,C18:2), treatment ratio versus control", "setting": "female rats, day 28", "value": 1.95}, {"measurement": "TAG (C18:2,C18:2), treatment ratio versus control", "setting": "female rats, day 28", "value": "2.48*"}, {"measurement": "TAG (C18:2,C18:3), treatment ratio versus control", "setting": "female rats, day 28", "value": 2.26}, {"measurement": "TAG (DAG-Fragment), treatment ratio versus control", "setting": "female rats, day 28", "value": "2.23*"}, {"measurement": "TAG No 02, treatment ratio versus control", "setting": "female rats, day 28", "value": "0.77*"}, {"measurement": "TAG No 07, treatment ratio versus control", "setting": "female rats, day 28", "value": 1.45}, {"measurement": "Threonine, treatment ratio versus control", "setting": "female rats, day 28", "value": "1.23*"}, {"measurement": "alpha-Tocopherol, treatment ratio versus control", "setting": "female rats, day 28", "value": 1.32}, {"measurement": "Alanine, treatment ratio versus control", "setting": "male rats, day 7", "value": "1.41*"}, {"measurement": "Campesterol, treatment ratio versus control", "setting": "male rats, day 7", "value": 1.13}, {"measurement": "Citrate, treatment ratio versus control", "setting": "male rats, day 7", "value": "1.19*"}, {"measurement": "Creatinine, treatment ratio versus control", "setting": "male rats, day 7", "value": 0.95}, {"measurement": "Glutamate, treatment ratio versus control", "setting": "male rats, day 7", "value": 0.93}, {"measurement": "Glutamine, treatment ratio versus control", "setting": "male rats, day 7", "value": "0.79*"}, {"measurement": "Hippuric acid, treatment ratio versus control", "setting": "male rats, day 7", "value": 0.91}, {"measurement": "Lysophosphatidylcholine (C20:4), treatment ratio versus control", "setting": "male rats, day 7", "value": 0.96}, {"measurement": "Malate, treatment ratio versus control", "setting": "male rats, day 7", "value": "1.25*"}, {"measurement": "Methionine, treatment ratio versus control", "setting": "male rats, day 7", "value": "1.08*"}, {"measurement": "Ornithine, treatment ratio versus control", "setting": "male rats, day 7", "value": "1.19*"}, {"measurement": "Phosphatidylcholine (C18:0, C22:6), treatment ratio versus control", "setting": "male rats, day 7", "value": "1.12*"}, {"measurement": "Serine, treatment ratio versus control", "setting": "male rats, day 7", "value": "1.28*"}, {"measurement": "Threonic acid, treatment ratio versus control", "setting": "male rats, day 7", "value": "1.33*"}, {"measurement": "Threonine, treatment ratio versus control", "setting": "male rats, day 7", "value": 1.14}, {"measurement": "Alanine, treatment ratio versus control", "setting": "male rats, day 14", "value": "1.59*"}, {"measurement": "Campesterol, treatment ratio versus control", "setting": "male rats, day 14", "value": 1.16}, {"measurement": "Citrate, treatment ratio versus control", "setting": "male rats, day 14", "value": "1.32*"}, {"measurement": "Creatinine, treatment ratio versus control", "setting": "male rats, day 14", "value": "0.63*"}, {"measurement": "Glutamate, treatment ratio versus control", "setting": "male rats, day 14", "value": "0.74*"}, {"measurement": "Glutamine, treatment ratio versus control", "setting": "male rats, day 14", "value": "0.77*"}, {"measurement": "Hippuric acid, treatment ratio versus control", "setting": "male rats, day 14", "value": "0.48*"}, {"measurement": "Lysophosphatidylcholine (C20:4), treatment ratio versus control", "setting": "male rats, day 14", "value": "0.93*"}, {"measurement": "Malate, treatment ratio versus control", "setting": "male rats, day 14", "value": 1.16}, {"measurement": "Methionine, treatment ratio versus control", "setting": "male rats, day 14", "value": "1.16*"}, {"measurement": "Ornithine, treatment ratio versus control", "setting": "male rats, day 14", "value": "1.52*"}, {"measurement": "Phosphatidylcholine (C18:0, C22:6), treatment ratio versus control", "setting": "male rats, day 14", "value": "1.47*"}, {"measurement": "Serine, treatment ratio versus control", "setting": "male rats, day 14", "value": "1.32*"}, {"measurement": "Threonic acid, treatment ratio versus control", "setting": "male rats, day 14", "value": "1.29*"}, {"measurement": "Threonine, treatment ratio versus control", "setting": "male rats, day 14", "value": "1.29*"}, {"measurement": "Alanine, treatment ratio versus control", "setting": "male rats, day 28", "value": "1.28*"}, {"measurement": "Campesterol, treatment ratio versus control", "setting": "male rats, day 28", "value": "0.59*"}, {"measurement": "Citrate, treatment ratio versus control", "setting": "male rats, day 28", "value": "1.57*"}, {"measurement": "Creatinine, treatment ratio versus control", "setting": "male rats, day 28", "value": "0.26*"}, {"measurement": "Glutamate, treatment ratio versus control", "setting": "male rats, day 28", "value": "0.78*"}, {"measurement": "Glutamine, treatment ratio versus control", "setting": "male rats, day 28", "value": "0.83*"}, {"measurement": "Hippuric acid, treatment ratio versus control", "setting": "male rats, day 28", "value": 1.43}, {"measurement": "Lysophosphatidylcholine (C20:4), treatment ratio versus control", "setting": "male rats, day 28", "value": 1.03}, {"measurement": "Malate, treatment ratio versus control", "setting": "male rats, day 28", "value": 0.86}, {"measurement": "Methionine, treatment ratio versus control", "setting": "male rats, day 28", "value": 1.01}, {"measurement": "Ornithine, treatment ratio versus control", "setting": "male rats, day 28", "value": "1.47*"}, {"measurement": "Phosphatidylcholine (C18:0, C22:6), treatment ratio versus control", "setting": "male rats, day 28", "value": "1.35*"}, {"measurement": "Serine, treatment ratio versus control", "setting": "male rats, day 28", "value": "1.29*"}, {"measurement": "Threonic acid, treatment ratio versus control", "setting": "male rats, day 28", "value": "1.46*"}, {"measurement": "Threonine, treatment ratio versus control", "setting": "male rats, day 28", "value": "1.21*"}, {"measurement": "capability of inducing an iron adsorption disorder", "setting": "statement in words", "value": "capable of inducing an iron adsorption disorder"}]}]}
